In PMC11435093, “Synthesis and Evaluation of ^99mTc(CO)3 Complexes with Ciprofloxacin Dithiocarbamate for Infection Imaging” (Pharmaceutics, 2024):

Columns and labels:
[1] = tested on: Swiss Albino mice with induced infection (Staphylococcus aureus) and aseptic inflammation (turpentine); assay: Biodistribution in mice with induced infection and aseptic inflammation; assay type: in vivo; details: for Urine radioactivity: per sample; for blood clearance / blood radioactivity course: within 120 min
Method: The in vivo behavior of HPLC purified technetium-99m complexes 1′–6′ was evaluated through biodistribution studies in Swiss Albino mice (40 ± 5 g) with induced infection and aseptic inflammation. The experiment was conducted in accordance with the guidelines for the protection of animals used for scientific purposes. Mice were divided into groups and prepared for biodistribution studies by inducing infection and aseptic inflammation. Twenty-four hours prior to the injection of the technetium complexes, the left thigh muscle of each mouse was inoculated with 50 µL of a Staphylococcus aureus suspension (1 × 10^6 CFU/mL) to induce infection. Aseptic inflammation was induced in the right thigh muscle by injecting 50 µL of turpentine oil. The technetium-99m complexes were administered intravenously via the tail vein. Each mouse received an injection of 0.037 MBq of the respective technetium-99m complex. The biodistribution was studied at two different time points, 15 min and 120 min post-injection. At each time point, the mice were sacrificed under anesthesia. Blood samples were obtained by cardiac puncture. The organs of interest were collected after dissection, including the liver, heart, kidneys, stomach, intestines, spleen, muscle (normal, infected, and inflamed), lungs, pancreas, and urinary bladder. The organs were made free from adhering tissues and transferred into pre-weighed counting vials. The radioactivity of the collected samples was measured using a shielded well-type gamma counter. The results were expressed as a percentage of injected dose per gram of tissue (% ID/g). The radioactivity ratios in infected muscle to normal muscle and inflamed muscle to normal muscle were calculated to assess the specificity and selectivity of the technetium complexes for infection and inflammation.

[2] = Lipophilicity: partition between n-octanol and PBS pH 7.4; assay type: physicochemical; details: n-octanol/PBS pH 7.4, M: 99mTc, three determinations
Method: The lipophilicity of HPLC purified technetium-99m complexes 1′–6′ was determined by measuring the partition coefficient (logD7.4) between n-octanol and phosphate-buffered saline (PBS, pH 7.4) based on established literature methods and is briefly described here. An aliquot of each technetium-99m complex was added to a mixture of equal volumes (2.0 mL each) of n-octanol and PBS (pH 7.4) in a 5 mL centrifuge tube. The mixture was vigorously vortexed for 2 min and then centrifuged at 5000 rpm for 5 min to ensure complete phase separation. After centrifugation, 0.1 mL aliquots from both the n-octanol and PBS phases were sampled and their radioactivity was measured using a gamma counter. The log P was calculated using the following equation: […]. The procedure was repeated three times for each complex to ensure reproducibility.

[3] = Stability of HPLC-purified 99mTc complexes (HPLC); assay type: physicochemical; details: HPLC-purified complex, room temperature, periodic HPLC
Method: (§1) The preparation of the ^99mTc-labeled complexes from synthesis to HPLC purification was completed within 1.5 h. Then, the stability of HPLC purified technetium-99m complexes 1′–6, with an RCP of 99% (based on HPLC), was assessed by monitoring their RCP over time and under various conditions using HPLC analysis based on established literature methods and is briefly described here.
After purification by HPLC, the stability of the isolated technetium-99m complexes was evaluated over 6 h. The purified complexes were stored at room temperature, and aliquots were taken at 1, 3, and 6 h for HPLC analysis.

[4] = Cysteine and histidine challenge (transchelation); assay type: physicochemical; details: 37 °C, 6 h
Method: as §1
Challenge experiments were performed by incubating the purified complexes with 10^−3 M solutions of cysteine and histidine at 37 °C. For each complex (1′–6′), 0.2 mL of the purified complex was mixed with 0.2 mL of the cysteine or histidine solution and incubated for 6 h. Aliquots were taken at the end of the incubation period and analyzed by HPLC.

Compound | Aseptic Infl. (turpentine inflamed muscle) radioactivity ([1]; 15 min post i.v. injection) | Blood radioactivity ([1]; 15 min post i.v. injection) | Heart radioactivity ([1]; 15 min post i.v. injection) | Infection (S. aureus infected muscle) radioactivity ([1]; 15 min post i.v. injection) | Intestines radioactivity ([1]; 15 min post i.v. injection) | Kidneys radioactivity ([1]; 15 min post i.v. injection) | Liver radioactivity ([1]; 15 min post i.v. injection) | Lungs radioactivity ([1]; 15 min post i.v. injection) | Muscle (normal) radioactivity ([1]; 15 min post i.v. injection) | Pancreas radioactivity ([1]; 15 min post i.v. injection) | Spleen radioactivity ([1]; 15 min post i.v. injection) | Stomach radioactivity ([1]; 15 min post i.v. injection) | Intestines radioactivity ([1]; 120 min post i.v. injection) | Kidneys radioactivity ([1]; 120 min post i.v. injection) | Liver radioactivity ([1]; 120 min post i.v. injection) | Lungs radioactivity ([1]; 120 min post i.v. injection) | Muscle (normal) radioactivity ([1]; 120 min post i.v. injection) | Pancreas radioactivity ([1]; 120 min post i.v. injection) | Spleen radioactivity ([1]; 120 min post i.v. injection) | LogD7.4 [2] | also measured
O=C(O)c1cn(C2CC2)c2cc(N3CCN(C(=S)[S][99Tc])CC3)c(F)cc2c1=O.[C-]#[O+].[C-]#[O+].[C-]#[O+].c1ccc(P(c2ccccc2)c2ccccc2)cc1 [complex 2′, fac-[^99mTc(CO)3(Cip-DTC)(PPh3)]] | 1.21 ± 0.07 %ID/g | 4.51 ± 1.32 %ID/g | 1.23 ± 0.36 %ID/g | 2.93 ± 0.09 %ID/g | 0.14 ± 0.03 %ID/g | 1.30 ± 0.13 %ID/g | 32.36 ± 3.58 %ID/g | 6.66 ± 1.45 %ID/g | 0.90 ± 0.09 %ID/g | 0.47 ± 0.20 %ID/g | 38.44 ± 3.92 %ID/g | 0.55 ± 0.23 %ID/g | 1.08 ± 0.07 %ID/g | 6.50 ± 0.36 %ID/g | 27.16 ± 4.02 %ID/g | 10.20 ± 0.12 %ID/g | 0.68 ± 0.05 %ID/g | 1.04 ± 0.04 %ID/g | 37.02 ± 4.43 %ID/g | 2.3 | aseptic inflammation/normal muscle ratio ([1]; 15 min post i.v. injection): 1.34; infected/normal muscle ratio ([1]; 15 min post i.v. injection): 3.29; Urine radioactivity ([1]; 15 min post i.v. injection): 3.95 ± 1.30 %ID; Aseptic Infl. (turpentine inflamed muscle) radioactivity ([1]; 120 min post i.v. injection): 0.86 ± 0.10 %ID/g; Blood radioactivity ([1]; 120 min post i.v. injection): 5.19 ± 0.81 %ID/g; Heart radioactivity ([1]; 120 min post i.v. injection): 3.97 ± 0.25 %ID/g; Infection (S. aureus infected muscle) radioactivity ([1]; 120 min post i.v. injection): 3.12 ± 0.14 %ID/g; Stomach radioactivity ([1]; 120 min post i.v. injection): 1.23 ± 0.14 %ID/g; aseptic inflammation/normal muscle ratio ([1]; 120 min post i.v. injection): 1.28; infected/normal muscle ratio ([1]; 120 min post i.v. injection): 4.62; Urine radioactivity ([1]; 120 min post i.v. injection): 4.04 ± 1.23 %ID; blood clearance / blood radioactivity course [1]: relatively stable
COc1ccc(P(c2ccc(OC)cc2)c2ccc(OC)cc2)cc1.O=C(O)c1cn(C2CC2)c2cc(N3CCN(C(=S)[S][99Tc])CC3)c(F)cc2c1=O.[C-]#[O+].[C-]#[O+].[C-]#[O+] [complex 3′, fac-[^99mTc(CO)3(Cip-DTC)(TMPP)]] | 0.15 ± 0.07 %ID/g | 2.54 ± 0.25 %ID/g | 0.74 ± 0.32 %ID/g | 0.27 ± 0.11 %ID/g | 0.36 ± 0.25 %ID/g | 1.40 ± 0.57 %ID/g | 47.48 ± 1.30 %ID/g | 9.58 ± 0.86 %ID/g | – | 0.29 ± 0.13 %ID/g | 33.88 ± 2.81 %ID/g | 0.64 ± 0.61 %ID/g | 3.52 ± 0.19 %ID/g | 5.65 ± 0.78 %ID/g | 27.58 ± 0.66 %ID/g | 8.67 ± 0.72 %ID/g | 0.34 ± 0.02 %ID/g | 0.93 ± 0.20 %ID/g | 23.10 ± 1.74 %ID/g | 2.7 | Urine radioactivity ([1]; 15 min post i.v. injection): 0.00 ± 0.00 %ID; Aseptic Infl. (turpentine inflamed muscle) radioactivity ([1]; 120 min post i.v. injection): 0.52 ± 0.23 %ID/g; Blood radioactivity ([1]; 120 min post i.v. injection): 6.71 ± 0.50 %ID/g; Heart radioactivity ([1]; 120 min post i.v. injection): 3.48 ± 0.23 %ID/g; Infection (S. aureus infected muscle) radioactivity ([1]; 120 min post i.v. injection): 1.14 ± 0.05 %ID/g; Stomach radioactivity ([1]; 120 min post i.v. injection): 1.21 ± 0.32 %ID/g; aseptic inflammation/normal muscle ratio ([1]; 120 min post i.v. injection): 1.51; infected/normal muscle ratio ([1]; 120 min post i.v. injection): 3.32; Urine radioactivity ([1]; 120 min post i.v. injection): 0.01 ± 0.02 %ID; blood clearance / blood radioactivity course [1]: increasing
fac-[^99mTc(CO)3(Cip-DTC)(H2O)] [complex 1′] | – | – | – | 1.06 ± 0.20 %ID/g | 0.71 ± 0.11 %ID/g | 5.16 ± 0.32 %ID/g | 22.05 ± 1.40 %ID/g | 6.41 ± 1.14 %ID/g | 0.18 ± 0.02 %ID/g | 0.91 ± 0.04 %ID/g | 9.79 ± 1.69 %ID/g | 0.91 ± 0.20 %ID/g | – | 5.76 ± 0.65 %ID/g | 25.96 ± 2.23 %ID/g | 4.33 ± 0.41 %ID/g | 0.18 ± 0.01 %ID/g | – | 5.24 ± 0.45 %ID/g | 1.2 | blood clearance / blood radioactivity course [1]: slow blood clearance; stability post-purification (integrity, HPLC) [3]: 92%; stability in cysteine ([4]; 10^-3 M cysteine): 90%; stability in histidine ([4]; 10^-3 M histidine): 91%
fac-[M(CO)3(Cip-DTC)(DMPP)] [complex 5′] | – | – | – | – | – | – | 35.51 ± 0.97 %ID/g | 9.87 ± 0.89 %ID/g | 0.40 ± 0.06 %ID/g | 0.83 ± 0.18 %ID/g | 18.04 ± 0.73 %ID/g | – | 9.98 ± 1.22 %ID/g | 5.69 ± 1.44 %ID/g | 31.27 ± 5.71 %ID/g | 5.37 ± 0.47 %ID/g | 1.34 ± 0.09 %ID/g | 3.68 ± 0.48 %ID/g | 7.64 ± 1.22 %ID/g | 2.0 | –
fac-[M(CO)3(Cip-DTC)(ADAP)] [complex 6′] | 1.10 ± 0.06 %ID/g | 2.18 ± 0.06 %ID/g | 4.27 ± 0.42 %ID/g | 0.94 ± 0.09 %ID/g | 3.22 ± 0.32 %ID/g | 8.05 ± 0.22 %ID/g | 20.95 ± 1.56 %ID/g | 7.13 ± 0.35 %ID/g | 1.01 ± 0.12 %ID/g | 3.70 ± 0.26 %ID/g | 6.40 ± 0.66 %ID/g | 0.98 ± 0.29 %ID/g | 10.24 ± 1.11 %ID/g | 4.47 ± 0.52 %ID/g | 22.98 ± 2.70 %ID/g | 3.06 ± 0.10 %ID/g | 0.69 ± 0.05 %ID/g | 2.27 ± 0.37 %ID/g | 2.55 ± 0.27 %ID/g | 1.6 | Urine radioactivity ([1]; 15 min post i.v. injection): 0.37 ± 0.08 %ID; Aseptic Infl. (turpentine inflamed muscle) radioactivity ([1]; 120 min post i.v. injection): 0.66 ± 0.10 %ID/g; Blood radioactivity ([1]; 120 min post i.v. injection): 1.33 ± 0.10 %ID/g; Heart radioactivity ([1]; 120 min post i.v. injection): 1.94 ± 0.31 %ID/g; Infection (S. aureus infected muscle) radioactivity ([1]; 120 min post i.v. injection): 0.69 ± 0.09 %ID/g; Stomach radioactivity ([1]; 120 min post i.v. injection): 3.14 ± 0.69 %ID/g; Urine radioactivity ([1]; 120 min post i.v. injection): 1.49 ± 0.23 %ID
CP(c1ccccc1)c1ccccc1.O=C(O)c1cn(C2CC2)c2cc(N3CCN(C(=S)[S][99Tc])CC3)c(F)cc2c1=O.[C-]#[O+].[C-]#[O+].[C-]#[O+] [complex 4′, fac-[M(CO)3(Cip-DTC)(MePPh2)]] | 0.77 ± 0.12 %ID/g | 3.20 ± 0.47 %ID/g | 4.36 ± 0.46 %ID/g | 0.88 ± 0.15 %ID/g | 1.27 ± 0.16 %ID/g | 5.92 ± 0.60 %ID/g | 42.11 ± 1.70 %ID/g | 11.15 ± 0.19 %ID/g | 0.56 ± 0.07 %ID/g | 1.38 ± 0.21 %ID/g | 21.59 ± 0.98 %ID/g | 1.11 ± 0.50 %ID/g | 7.97 ± 0.12 %ID/g | 11.10 ± 0.70 %ID/g | 31.09 ± 0.72 %ID/g | 9.41 ± 1.15 %ID/g | – | 3.21 ± 0.28 %ID/g | 8.14 ± 0.93 %ID/g | 1.8 | Urine radioactivity ([1]; 15 min post i.v. injection): 0.01 ± 0.00 %ID; Aseptic Infl. (turpentine inflamed muscle) radioactivity ([1]; 120 min post i.v. injection): 1.88 ± 0.26 %ID/g; Blood radioactivity ([1]; 120 min post i.v. injection): 1.48 ± 0.11 %ID/g; Heart radioactivity ([1]; 120 min post i.v. injection): 8.85 ± 0.63 %ID/g; Infection (S. aureus infected muscle) radioactivity ([1]; 120 min post i.v. injection): 2.83 ± 0.30 %ID/g; Stomach radioactivity ([1]; 120 min post i.v. injection): 2.23 ± 0.37 %ID/g; Urine radioactivity ([1]; 120 min post i.v. injection): 0.04 ± 0.03 %ID
